Assays:
NCI-H292 tumor = assay: NCI-H292 lung cancer xenograft model; assay type: in vivo, mice; settings: versus control group; Antibody 2 40 mg/kg 3 times per week i.p.; Docetaxel 12 mg/kg q7d; through Day 26
Experimental: In order to test for activity of anti-VEGFR-3 antibodies in lung cancer, the NCI-H292 xenograft model is used. Nu/nu mice (female, 7-8 weeks of age) are injected subcutaneously with 2×10^6 NCI-H292 cells/mouse. When tumors reach approximately 300 mm^3, mice are randomized by tumor size into the following treatment groups (n=15): 1) USP saline at 10 μl/g, 3 times per week, i.p., starting on day 2. 2) Antibody 2 at 40 mg/kg, 3 times per week, i.p., starting day 2. 3) Docetaxel at 12 mg/kg, q7d, starting day 1. 4) Docetaxel at 12 mg/kg, q7d, starting day 1 plus Antibody 2 at 40 mg/kg, 3 times per week, starting day 2.
Tumor volumes are measured approximately twice a week and body weights are recorded at least twice a week for the duration of the study. At sacrifice, mice are euthanized by CO2 asphyxiation. The T/C % is calculated for each treatment group as the ratio of the relative tumor volume in the experimental groups versus the control group. Tumor growth and body weights are compared to the control group by repeated measures ANOVA through Day 26.

CAL27 tumors = assay: CAL27 squamous cell carcinoma xenograft model; assay type: in vivo, mice; settings: versus USP saline; Antibody 2 40 mg/kg 3 days per week; cisplatin 7 mg/kg q7d; through Day 61
Experimental: In order to test for activity of anti-VEGFR-3 antibodies in head and neck cancer, the CAL27 xenograft model is used. CAL27 cell suspension, at 1×10^7 cells/mouse, is injected s.c. into the left flank of 60 female athymic mice. When tumors reach ˜180 mm^3, eight days after cell implantation, the mice are randomized and divided into four treatment groups (n=12): 1.) USP saline control, 0.5 ml i.p., 3 days per week 2.) Antibody 2 at 40 mg/kg, 3 days per week 3.) cisplatin at 7 mg/kg, q7d 4.) Antibody 2 at 40 mg/kg, 3 days per week+cisplatin at 7 mg/kg, q7d.
Tumor measurements are recorded twice weekly; RM ANOVA through Day 61 is used to compare tumor growth among the treatment groups. Chi Squared tests are used to test for statistical significance in the number of tumor regressions among the treatment groups.

CC(=O)O[C@@]12CO[C@@H]1C[C@H](O)[C@@]1(C)C(=O)[C@H](O)C3=C(C)[C@@H](OC(=O)[C@H](O)[C@@H](NC(=O)OC(C)(C)C)c4ccccc4)C[C@@](O)([C@@H](OC(=O)c4ccccc4)[C@H]21)C3(C)C [Docetaxel]
T/C % (NCI-H292 tumor): 49%

N.N.[Cl][Pt][Cl] [cisplatin]
T/C % (CAL27 tumors): 39%

From patent publication US8784818B2, “Anti-VEGFR-3 antibody compositions” (ImClone LLC, priority 2010, dated 2014)
